We go through 30 molecules from patent US10189854B2, “Substituted pyrimidine compounds” (Grünenthal GmbH, priority 2014, dated 2019).

Chain of human PDE4B1 (Q07343 whole entry): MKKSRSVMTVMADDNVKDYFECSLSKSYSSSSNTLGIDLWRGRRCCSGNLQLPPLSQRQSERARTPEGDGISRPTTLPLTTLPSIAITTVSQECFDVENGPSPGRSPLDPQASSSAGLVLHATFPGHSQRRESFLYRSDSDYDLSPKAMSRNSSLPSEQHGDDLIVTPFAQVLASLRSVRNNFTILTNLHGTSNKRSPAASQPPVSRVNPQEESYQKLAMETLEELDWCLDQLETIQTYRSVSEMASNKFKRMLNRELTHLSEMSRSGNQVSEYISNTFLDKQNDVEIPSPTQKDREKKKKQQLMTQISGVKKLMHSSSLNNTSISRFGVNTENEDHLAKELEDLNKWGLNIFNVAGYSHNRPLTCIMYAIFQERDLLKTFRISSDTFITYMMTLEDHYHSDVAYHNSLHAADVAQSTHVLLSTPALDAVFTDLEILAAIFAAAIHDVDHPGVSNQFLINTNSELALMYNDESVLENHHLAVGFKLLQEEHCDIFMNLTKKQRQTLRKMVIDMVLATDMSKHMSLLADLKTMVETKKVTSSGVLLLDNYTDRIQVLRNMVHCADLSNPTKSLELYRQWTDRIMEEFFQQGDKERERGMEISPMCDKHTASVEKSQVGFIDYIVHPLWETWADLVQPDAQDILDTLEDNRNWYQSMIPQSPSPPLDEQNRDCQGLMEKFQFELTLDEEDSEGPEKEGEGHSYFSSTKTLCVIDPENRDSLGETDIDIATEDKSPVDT

This experiment concerns the target human PDE4B1 (Homo sapiens (Human), UniProt Q07343). Briefly: cAMP HTRF assay to determine the activity of hPDE4B1. It counts as biochemical. To be noted: IC50 inhibition of PDE4B; human recombinant PDE4B1, cAMP HTRF assay. In outline:
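Recombinant human PDE4B1 expressed in Sf9 cells (4.8 U) was incubated with 40 nM cAMP for 30 min at room temperature in Tris buffer, pH 7.8, with MgCl2, DTT and Tween 20. HTRF detection of remaining cAMP followed, with 1 mM IBMX stop, read 60 min later as the 665/620 nm ratio. Results are % inhibition versus control.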
For orientation: In TR-FRET formats the signal depends on donor and acceptor labels being close together.
In the case of `O=C(c1ccc2c(c1)N(c1ncc(-c3cc(F)cc(F)c3)cn1)CC21CC1)N1CCOCC1` [Compound 50, [1-[5-(3,5-Difluoro-phenyl)-pyrimidin-2-yl]-spiro[1,2-dihydro-indole-3,1′-cyclopropane]-6-yl]-morpholin-4-ylmethanone], the IC50 was less than 0.1 µM.
Take `O=C(c1ccc2c(c1)N(c1ncc(-c3ccc(F)cn3)cn1)CC21CC1)N1CCOCC1` [Compound 165, [1-[5-(5-Fluoro-pyridin-2-yl)-pyrimidin-2-yl]-spiro[1,2-dihydro-indole-3,1′-cyclopropane]-6-yl]-morpholin-4-yl-methanone]: the IC50 is less than 0.1 µM.
With `CN(CCN)C(=O)c1ccc2c(c1)N(c1ncc(-c3ccccc3F)cn1)CC21CC1` [Compound 41, N-(2-Amino-ethyl)-1-[5-(2-fluorophenyl)-pyrimidin-2-yl]-N-methyl-spiro[1,2-dihydro-indole-3,1′-cyclopropane]-6-carboxylic acid amide], the IC50 was less than 0.1 µM.
Then `O=C(c1ccc2c(c1)N(c1ncc(-c3ccc(F)s3)cn1)CC21CC1)N1CCOCC1` [Compound 148, [1-[5-(5-Fluoro-thiophen-2-yl)-pyrimidin-2-yl]-spiro[1,2-dihydro-indole-3,1′-cyclopropane]-6-yl]-morpholin-4-yl-methanone], with less than 0.1 µM; and `O=C(c1ccc2c(c1)N(c1ncc(-c3ccncc3)cn1)CC21CC1)N1CCOCC1` [Compound 146, Morpholin-4-yl-[1-(5-pyridin-4-yl-pyrimidin-2-yl)-spiro[1,2-dihydro-indole-3,1′-cyclopropane]-6-yl]-methanone], with less than 0.1 µM; and `COc1ccc(F)c(-c2cnc(N3CC4(CC4)c4ccc(C(=O)N5CCOCC5)cc43)nc2)c1` [Compound 16, [1-[5-(2-Fluoro-5-methoxy-phenyl)-pyrimidin-2-yl]-spiro[1,2-dihydro-indole-3,1′-cyclopropane]-6-yl]-morpholin-4-yl-methanone], with less than 0.1 µM.
For `O=C(c1ccc2c(c1)N(c1ncc(-c3cccc(F)c3)cn1)CC21CC1)N1CCOCC1` [Compound 57, [1-[5-(3-Fluorophenyl)-pyrimidin-2-yl]-spiro[1,2-dihydro-indole-3,1′-cyclopropane]-6-yl]-morpholin-4-yl-methanone], the IC50 was less than 0.1 µM.
On to `O=C(c1ccc2c(c1)N(c1ncc(-c3ccccc3F)cn1)CC21CC1)N1CC2CC1CN2` (stereo not drawn) [Compound 107, (2,5-Diazabicyclo[2.2.1]heptan-2-yl)-[1-[5-(2-fluorophenyl)-pyrimidin-2-yl]-spiro[1,2-dihydro-indole-3,1′-cyclopropane]-6-yl]-methanone], for which the half-inhibitory concentration (IC50) was less than 0.1 µM.
Then `N#Cc1ccc(-c2cnc(N3CC4(CC4)c4ccc(C(=O)N5CCOCC5)cc43)nc2)c(F)c1` [Compound 30, 3-Fluoro-4-[2-[6-(morpholine-4-carbonyl)-spiro[1,2-dihydro-indole-3,1′-cyclopropane]-1-yl]-pyrimidin-5-yl]-benzonitrile], with 0.1 to 1 µM; and “[1-[5-(1-Fluorophenyl)-pyrimidin-2-yl]-spiro[1,2-dihydro-indole-3,1′-cyclopropane]-6-yl]-pyrrolidin-1-yl-methanone [Compound 3]”, with less than 0.1 µM.
Turning to `N#Cc1csc(-c2cnc(N3CC4(CC4)c4ccc(C(=O)N5CCOCC5)cc43)nc2)c1` [Compound 161, 5-[2-[6-(Morpholine-4-carbonyl)-spiro[1,2-dihydro-indole-3,1′-cyclopropane]-1-yl]-pyrimidin-5-yl]-thiophene-3-carbonitrile], the IC50 is less than 0.1 µM.
As for `O=C(c1ccc2c(c1)N(c1ncc(-c3ccccc3F)cn1)CC21CC1)N1CCCC(O)C1` (stereo not drawn) [Compound 96, [1-[5-(2-Fluorophenyl)-pyrimidin-2-yl]-spiro[1,2-dihydro-indole-3,1′-cyclopropane]-6-yl]-(3-hydroxy-piperidin-1-yl)-methanone], the IC50 was less than 0.1 µM.
Then `O=C(c1ccc2c(c1)N(c1ncc(-c3ccccn3)cn1)CC21CC1)N1CCCC1` [Compound 175, [1-(5-Pyridin-2-yl-pyrimidin-2-yl)-spiro[1,2-dihydro-indole-3,1′-cyclopropane]-6-yl]-pyrrolidin-1-yl-methanone], with less than 0.1 µM; and `CCN1CCN(C(=O)c2ccc3c(c2)N(c2ncc(-c4ccccc4F)cn2)CC32CC2)CC1` [Compound 86, (4-Ethyl-piperazin-1-yl)-[1-[5-(2-fluorophenyl)-pyrimidin-2-yl]-spiro[1,2-dihydro-indole-3,1′-cyclopropane]-6-yl]methanone], with 0.1 to 1 µM; and `NC(=O)c1ccc(-c2cnc(N3CC4(CC4)c4ccc(C(=O)N5CCOCC5)cc43)nc2)cc1` [Compound 63, 4-[2-[6-(Morpholine-4-carbonyl)-spiro[1,2-dihydro-indole-3,1′-cyclopropane]-1-yl]-pyrimidin-5-yl]-benzamide], with less than 0.1 µM.
For the molecule `O=C(c1ccc2c(c1)N(c1ncc(-c3ccccc3)cn1)CC21CC1)N1CCNCC1` [Compound 49, [1-(5-Phenyl-pyrimidin-2-yl)-spiro[1,2-dihydro-indole-3,1′-cyclopropane]-6-yl]-piperazin-1-yl-methanone], the IC50 was less than 0.1 µM.
Then `O=C(c1ccc2c(c1)N(c1ncc(-c3ccccc3F)cn1)CC21CC1)N1CCC2(COC2)C1` [Compound 68, [1-[5-(2-Fluorophenyl)-pyrimidin-2-yl]-spiro[1,2-dihydro-indole-3,1′-cyclopropane]-6-yl]-(2-oxa-7-azaspiro[3.4]octan-7-yl)-methanone], with 0.1 to 1 µM; and `N[C@@H]1CCN(C(=O)c2ccc3c(c2)N(c2ncc(-c4ccccc4F)cn2)CC32CC2)C1` [Compound 40, [(3R)-3-Amino-pyrrolidin-1-yl]-[1-[5-(2-fluorophenyl)-pyrimidin-2-yl]-spiro[1,2-dihydro-indole-3,1′-cyclopropane]-6-yl]-methanone], with less than 0.1 µM; and `COc1ccsc1-c1cnc(N2CC3(CC3)c3ccc(C(=O)N4CCOCC4)cc32)nc1` [Compound 139, [1-[5-(3-Methoxy-thiophen-2-yl)-pyrimidin-2-yl]-spiro[1,2-dihydro-indole-3,1′-cyclopropane]-6-yl]-morpholin-4-yl-methanone], with less than 0.1 µM.
Then `CN(C)C(=O)c1ccc(-c2cnc(N3CC4(CC4)c4ccc(C(=O)N5CCOCC5)cc43)nc2)c(F)c1` [Compound 65, 3-Fluoro-N,N-dimethyl-4-[2-[6-(morpholine-4-carbonyl)-spiro[1,2-dihydro-indole-3,1′-cyclopropane]-1-yl]-pyrimidin-5-yl]-benzamide], with less than 0.1 µM.
As for `O=C(c1ccc2c(c1)N(c1ncc(-c3sccc3Cl)cn1)CC21CC1)N1CCOCC1` [Compound 133, [1-[5-(3-Chloro-thiophen-2-yl)-pyrimidin-2-yl]-spiro[1,2-dihydro-indole-3,1′-cyclopropane]-6-yl]-morpholin-4-yl-methanone], the half-inhibitory concentration (IC50) lay within 0.1 to 1 µM.
Then “[1-[5-(2-Fluorophenyl)-pyrimidin-2-yl]-spiro[1,2-dihydro-pyrrolo[2,3-b]pyridine-3,1′-cyclobutane]-6-yl]-morpholin-4-yl-methanone [Compound 171]”, with 0.1 to 1 µM; and `CS(=O)(=O)c1ccc(-c2cnc(N3CC4(CC4)c4ccc(C(=O)N5CCOCC5)cc43)nc2)c(F)c1` [Compound 29, [1-[5-(2-Fluoro-4-methylsulfonyl-phenyl)-pyrimidin-2-yl]-spiro[1,2-dihydro-indole-3,1′-cyclopropane]-6-yl]morpholin-4-yl-methanone], with less than 0.1 µM; and `O=C(c1ccc2c(n1)N(c1ncc(-c3ccccc3F)cn1)CC21CC1)N1CCOCC1` [Compound 170, [1-[5-(2-Fluorophenyl)-pyrimidin-2-yl]-spiro[1,2-dihydro-pyrrolo[2,3-b]pyridine-3,1′-cyclopropane]-6-yl]-morpholin-4-yl-methanone], with less than 0.1 µM.
For the molecule `O=C(c1ccc2c(c1)N(c1ncc(-c3cc(C(F)(F)F)ccc3F)cn1)CC21CC1)N1CCOCC1` [Compound 23, [1-[5-[2-Fluoro-5-(trifluoromethyl)-phenyl]-pyrimidin-2-yl]-spiro[1,2-dihydro-indole-3,1′-cyclopropane]-6-yl]-morpholin-4-yl-methanone], the IC50 was less than 0.1 µM.
`O=C(c1ccc2c(c1)N(c1ncc(-c3ccccc3F)cn1)CC21CC1)N1CCOCC1` [Compound 1, [1-[5-(2-Fluorophenyl)-pyrimidin-2-yl]-spiro[1,2-dihydro-indole-3,1′-cyclopropane]-6-yl]-morpholin-4-yl-methanone]: the IC50 was less than 0.1 µM.
Then `O=C(c1ccc2c(c1)N(c1ncc(-c3ccccn3)cn1)CC21CC1)N1CCOCC1` [Compound 150, Moprholin-4-yl-[1-(5-pyridin-2-yl-pyrimidin-2-yl)-spiro[1,2-dihydro-indole-3,1′-cyclopropane]-6-yl]-methanone], with less than 0.1 µM; and `O=C(c1ccc2c(c1)N(c1ncc(-c3ccccc3F)cn1)CC21CC1)N1CC[C@H](O)C1` [Compound 45, [1-[5-(2-Fluorophenyl)-pyrimidin-2-yl]-spiro[1,2-dihydro-indole-3,1′-cyclopropane]-6-yl]-[(3S)-3-hydroxy-pyrrolidin-1-yl]-methanone], with 0.1 to 1 µM.
Then `Cc1noc(C)c1-c1cnc(N2CC3(CC3)c3ccc(C(=O)N4CCOCC4)cc32)nc1` [Compound 135, [1-[5-(3,5-Dimethyl-isoxazol-4-yl)-pyrimidin-2-yl]-spiro[1,2-di-hydro-indole-3,1′-cyclopropane]-6-yl]-morpholin-4-yl-methanone], with 0.1 to 1 µM; and `O=C(c1ccc2c(c1)N(c1ncc(-c3ccccc3F)cn1)CC21CC1)N1CCS(=O)(=O)CC1` [Compound 106, (1,1-Dioxo-[1,4]thiazinan-4-yl)-[1-[5-(2-fluorophenyl)-pyrimidin-2-yl]-spiro[1,2-dihydro-indole-3,1′-cyclopropane]-6-yl]-methanone], with 0.1 to 1 µM.

As a reminder, the IC50 is the concentration needed to halve the response being measured.
